Measured values published in patent US20130331345A1, “PUERARIN HYDRATES, PREPARATION METHODS AND USES THEREOF” (priority 2010, published 2013).

Molecular target: T1, ACE (Rattus norvegicus, UniProt P47820)
T1 construct: from tissue; host or cells: blood serum of Wistar rats
T1 sequence (P47820 36-1313): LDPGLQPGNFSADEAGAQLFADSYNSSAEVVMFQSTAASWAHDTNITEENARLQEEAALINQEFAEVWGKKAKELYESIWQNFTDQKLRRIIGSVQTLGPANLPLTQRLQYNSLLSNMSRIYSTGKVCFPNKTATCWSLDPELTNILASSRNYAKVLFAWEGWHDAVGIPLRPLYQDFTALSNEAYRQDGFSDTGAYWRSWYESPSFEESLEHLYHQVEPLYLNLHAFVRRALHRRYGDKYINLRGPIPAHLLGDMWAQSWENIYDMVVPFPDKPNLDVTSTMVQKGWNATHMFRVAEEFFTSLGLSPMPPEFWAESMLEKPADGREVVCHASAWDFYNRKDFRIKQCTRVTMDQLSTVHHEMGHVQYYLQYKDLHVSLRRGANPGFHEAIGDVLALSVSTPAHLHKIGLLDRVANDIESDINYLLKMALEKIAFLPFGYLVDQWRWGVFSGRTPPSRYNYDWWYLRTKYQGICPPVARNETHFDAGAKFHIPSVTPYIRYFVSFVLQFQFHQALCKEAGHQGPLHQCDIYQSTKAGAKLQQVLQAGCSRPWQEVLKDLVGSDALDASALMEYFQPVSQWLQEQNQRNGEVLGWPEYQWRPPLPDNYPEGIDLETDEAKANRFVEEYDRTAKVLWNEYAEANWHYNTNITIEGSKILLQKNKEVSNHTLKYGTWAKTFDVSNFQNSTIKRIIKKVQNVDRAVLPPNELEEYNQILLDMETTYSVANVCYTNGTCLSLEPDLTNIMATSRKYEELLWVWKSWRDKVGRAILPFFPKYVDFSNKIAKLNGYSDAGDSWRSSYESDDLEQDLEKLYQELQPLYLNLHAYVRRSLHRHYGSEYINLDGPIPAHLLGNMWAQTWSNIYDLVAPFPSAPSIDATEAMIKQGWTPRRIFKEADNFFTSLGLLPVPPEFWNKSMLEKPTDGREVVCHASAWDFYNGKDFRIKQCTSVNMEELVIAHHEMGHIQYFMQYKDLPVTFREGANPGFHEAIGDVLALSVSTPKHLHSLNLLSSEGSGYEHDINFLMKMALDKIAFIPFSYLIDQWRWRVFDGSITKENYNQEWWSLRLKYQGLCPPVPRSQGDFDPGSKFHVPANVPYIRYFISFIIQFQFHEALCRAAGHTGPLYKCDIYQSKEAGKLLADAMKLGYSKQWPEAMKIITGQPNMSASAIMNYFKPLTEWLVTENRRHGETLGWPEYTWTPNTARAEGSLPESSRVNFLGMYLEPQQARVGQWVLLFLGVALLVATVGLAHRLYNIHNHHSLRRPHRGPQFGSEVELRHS
Assay: Effects on inhibiting ACE activity (rat blood serum after intraperitoneal injection)
Type: in vivo, Wistar rats
Experimental: 24 Wistar rats, 280-300 g, were randomly divided into 3 groups, 8 rats per group, one group was control group, other two groups were separately 100 mg/kg, 200 mg/kg dose groups (which was added with cosolvent to form an injectable solution), subjected to intraperitoneal injection, the control group was administered with physiological saline. 60 min after administration, the rats were anesthetized with 1% pentobarbital sodium, subjected to thoracotomy and blood sample was taken from heart, the blood sample stood at room temperature for 30 min, centrifuged under 3500 r/min at low temperature for 10 min, the supernatant was taken and stored at about −65° C., for test. Measurement of ACE activity: referring to document [WANG, Fumin, et al, Chinese Journal of Laboratory Medicine, 1983, 6(3):145-151], the results were subjected to statistical treatment: the results were expressed in x±S, and data were subjected to analysis of variance and t-test.

Structure (SMILES): O=c1c(-c2ccc(O)cc2)coc2c([C@@H]3O[C@H](CO)[C@@H](O)[C@H](O)[C@H]3O)c(O)ccc12 [Sample 1, puerarin monohydrate]
- rat blood serum ACE activity compared with the control group (100 and 200 mg/kg intraperitoneal, P<0.01): dose-dependent decrease
- inhibition at 100 mg/kg (rat, ip, rats, 100 mg/kg intraperitoneal, vs control group, read-out: inhibition rate (%)): 36.1%
- ACE (IU) (rats, 100 mg/kg intraperitoneal, blood taken 60 min after administration): 34.8 ± 6.19 IU
